{"source": "patent US11779565B2", "about": "“Small organic molecules for use in the treatment of neuroinflammatory disorders” (THE MEDICAL RESEARCH, INFRASTRUCTURE AND HEALTH SERVICES …, priority 2017, dated 2023)", "key": {"RR-EAE mice [1]": {"system": "RR-EAE mice", "assay": "De novo expression of doublecortin (BrdU+DCX+ cells) in SVZ and SGZ of RR-EAE mice", "type": "in vivo", "description": "FIGS. 10A-10B—The effect of SM1, SM7, SM9 and SM6 on de novo expression of neuroblasts marker doublecortin in the SVZ. FIG. 10A—Immunofluorescence images showing the labeling of BrdU and doublecortin (DCX) in the SVZ. Images were obtained using Zeiss 710 confocal microscope, coronal sections. LV, lateral ventricle, SVZ, subventricular zone. Scale bar for images: a, c, e, g, i, k, m, o=100 μm (magnification×10), and images: b, d, f, h, j, 1, n, p=20 μm (magnification×63). FIG. 10B: Quantification of BrdU^+ DOC^+ cells in the SVZ. Analysis was performed using image J software on 3 sections from each mouse (3 mice from each group, total n=9). Values are given as mean±SEM and the results of Student's t-test are represented as *p<0.05.\nFIGS. 11A-11B—The effect of SM1, SM7, SM9 and SM6 on de novo expression of doublecortin in the SGZ. FIG. 11A: are immunohistochemical images showing the labeling of BrdU^+DCX^+ cells in the SGZ. Images were obtained using Olympus 8.1 microscope (magnification×10). FIG. 11B: Quantification of BrdU^+DCX^+ cells in the SGZ. Analysis was performed using image J software on 3 sections from each mouse (3 mice from each group, total n=9). Values are given as mean±SEM and the results of Student's t-test are represented as *p<0.05.\n(§1) RR-EAE induced mice were intraperitoneally injected with 250 μg/mouse (Low-L) or 500 μg/mouse (High-H) of the small molecules SM1, SM7, SM9, SM6, or the corresponding vehicle. The SMs were injected each day starting on day 9 post immunization for 30 days. For immunohistochemical analysis, 3 mice of each group were intraperitoneally injected daily with bromo-2′-deoxyuridine (BrdU) starting from day 9 post immunization for 8 following days.\nNext, the amount of BrdU DCX cells in the SGZ of mice was evaluated. FIGS. 11A-11B show immunohistochemical labeling of BrdU DCX cells in mice with EAE after treatment with the SMs or with vehicle."}, "RR-EAE mice [2]": {"system": "RR-EAE mice", "assay": "De novo expression of NeuN (BrdU+NeuN+ cells) in SGZ of RR-EAE mice", "type": "in vivo", "description": "FIGS. 12A-12B—The effect of SM1, SM7, SM9 and SM6 on de novo expression of mature neurons marker NeuN in the SGZ. FIG. 12A: immunohistochemical images showing the labeling of BrdU^+NeuN^+ cells in the SGZ. Images were obtained using Olympus 8.1 microscope (magnification×10). FIG. 12B: Quantification of BrdU^+NeuN^+ in the SGZ. Analysis was performed using image J software on 3 sections from each mouse (3 mice from each group, total n=9). Values are given as mean±SEM and the results of Student's t-test are represented as *p<0.05.\nas §1\nIn this experiment, the amount of BrdU^+NeuN^+ cells in the SGZ of mice was evaluated. FIGS. 12A-12B show immunohistochemical labeling of BrdU^+NeuN^+ cells in mice with EAE that were treated with SMs or vehicle, using Olympus 8.1 microscope (magnification×10)."}, "ATDC5 cells": {"system": "ATDC5 cells", "assay": "Cell viability (CellTiter-Glo) in the ATDC5 HTS bioassay", "type": "cell-based", "conditions": "library screening", "description": "Poly-L-lysine (Sigma-Aldrich) was added to 384-well plates and was removed after 30 min of incubation at RT. An assay medium containing DMEM/F12, 2% FBS, 100 units/ml penicillin, […] streptomycin (Biological industries) was added to each well. […] ATDC5 cells (Sigma-Aldrich) were harvested, re-suspended in assay medium and added to a final concentration of 2000 cells/well. Finally, heparin (Sigma-Aldrich) was added to a final concentration of 2 μg/ml. The cells were incubated for 48 hours at 37° C. with 5% CO2 in a humidified chamber in the presence or absence of potential small molecule inhibitors of BPM-2. After incubation, ALP levels and cell viability were determined using a completely automated protocol. Cells were washed with PBS, lysed using a lysis buffer containing 0.2% Triton X-100 in PBS supplemented with a protease inhibitor cocktail (Sigma-Aldrich) and incubated for 25 min at RT. ALP level was then determined by addition of CDP-Star® chemiluminescent substrate (Sigma-Aldrich) and measurement of luminescence after incubation for 25 min at RT in the dark. Cell viability was finally determined by addition of CellTiter-Glo® reagent (Biological Industries) and luminescence measurement after 10 min of incubation.\nAn ATDC5 cell based assay for assessing structure-function relationship of BMP-2 and BMP receptor IA was originally described in Keller et al (Nature Structural & Molecular Biology 2004 11, 481-488). In order to screen a large volume of potential therapeutic agents the ATDC5 cell based bioassay for detecting BMP inhibition was adapted for use in high throughput screening. The bioassay is based on the stimulation of alkaline phosphatase (ALP) production in mouse ATDC5 cells by administration of BMP-2 and heparin, and measurement of ALP levels in the presence of the potential inhibitors. The assay was characterized by the following features: • (a) optimal conditions for HTS automated instruments were found so as to obtain a satisfying gap (i.e. positive Z-prime, above 0.5) between ALP production in the presence of BMP-2, to ALP production in the absence of BMP-2 (no stimulation). • (b) a sensitive method was designed for ALP determination for HTS—namely, the use of CDP-Star® chemiluminescent substrate and luminescence measurement. • (c) both ALP production and cells' viability were measured simultaneously. This was achieved by using CellTiter-Glo® Luminescent Cell Viability Assay for assessing the cells' viability after the luminescent signal by CDP-Star® has faded. […]\nA library of small molecules (SM) was screened using the High Throughput Screening bioassay described above. […] The ALP levels and cell viability are shown in FIG. 2 as a percentage of the ALP or viability luminescence levels in the presence of BMP-2 without the SM. […]"}, "[3]": {"conditions": "high dose (H) 500 μg/mouse i.p. daily from day 9 for 30 days"}, "[4]": {"conditions": "low dose (L) 250 μg/mouse i.p. daily from day 9 for 30 days"}, "[5]": {"conditions": "high dose (H) 500 μg/mouse i.p. daily"}, "[6]": {"conditions": "low dose (L) 250 μg/mouse i.p. daily"}}, "data": [{"smiles": "COC(=O)c1sccc1N/N=C(\\C#N)S(=O)(=O)c1cccs1", "note": "[SM1, Methyl 3-[(2E)-2-[cyano(thiophen-2-ylsulfonyl)methylidene]hydrazinyl]thiophene-2-carboxylate]", "values": [{"measurement": "BrdU+DCX+ cells in the SVZ vs. vehicle", "setting": "RR-EAE mice [1]; [3]", "value": "trend for increased induction"}, {"measurement": "BrdU+DCX+ cells in the SVZ vs. vehicle", "setting": "RR-EAE mice [1]; [4]", "value": "trend for increased induction"}, {"measurement": "BrdU+NeuN+ cells in the SGZ vs. vehicle", "setting": "RR-EAE mice [2]; [5]", "value": "significant increased induction"}, {"measurement": "cytotoxicity in mouse ATDC5 cells", "setting": "ATDC5 cells", "value": "without leading to cytotoxicity"}]}, {"smiles": "O=C(Nc1cccc(C(F)(F)F)c1)c1ccc([N+](=O)[O-])o1", "note": "[SM6, N2-[3-(trifluoromethyl)phenyl)-5-nitro-2-furamide]", "values": [{"measurement": "BrdU+DCX+ cells in the SVZ vs. vehicle", "setting": "RR-EAE mice [1]; [3]", "value": "trend for increased induction"}, {"measurement": "BrdU+DCX+ cells in the SGZ vs. vehicle", "setting": "RR-EAE mice [1]; [6]", "value": "trend for increased"}, {"measurement": "cytotoxicity in mouse ATDC5 cells", "setting": "ATDC5 cells", "value": "without leading to cytotoxicity"}]}, {"smiles": "N#Cc1c(O)nsc1Nc1ccccc1C(F)(F)F", "note": "[SM7, 3-hydroxy-5-[2-(trifluoromethyl)aniline]isothiazole-4-carbonitrile]", "values": [{"measurement": "BrdU+DCX+ cells in the SGZ vs. vehicle", "setting": "RR-EAE mice [1]; [6]", "value": "trend for increased"}, {"measurement": "cytotoxicity in mouse ATDC5 cells", "setting": "ATDC5 cells", "value": "without leading to cytotoxicity"}]}, {"smiles": "CS(=O)(=O)c1noc(-c2ccc(Cl)cc2)c1C#N", "note": "[SM9, 5-(4-chlorophenyl)-3-methylsulfonyl-1,2-oxazole-4-carbonitrile]", "values": [{"measurement": "BrdU+DCX+ cells in the SGZ vs. vehicle", "setting": "RR-EAE mice [1]; [5]", "value": "significant increased induction"}, {"measurement": "BrdU+DCX+ cells in the SVZ vs. vehicle", "setting": "RR-EAE mice [1]; [3]", "value": "trend for increased induction"}, {"measurement": "BrdU+DCX+ cells in the SGZ vs. vehicle", "setting": "RR-EAE mice [1]; [6]", "value": "trend for increased"}, {"measurement": "BrdU+DCX+ cells in the SVZ vs. vehicle", "setting": "RR-EAE mice [1]; [4]", "value": "significant increase"}, {"measurement": "BrdU+NeuN+ cells in the SGZ vs. vehicle", "setting": "RR-EAE mice [2]; [5]", "value": "trend for increased"}, {"measurement": "BrdU+NeuN+ cells in the SGZ vs. vehicle", "setting": "RR-EAE mice [2]; [6]", "value": "significant increased induction"}, {"measurement": "cytotoxicity in mouse ATDC5 cells", "setting": "ATDC5 cells", "value": "without leading to cytotoxicity"}]}]}
